The text below walks through data of patent US4900749A, “Isoprenoidamine compounds useful as antiulcer agents” (Shionogi & Co., Ltd., priority 1985, dated 1990).

In one assay the test system is lesion formation. Kind of assay: inhibition of 60% ethanol/150 mM hydrochloric acid-induced stomach lesion formation (Experiment 1). It counts as in vivo, Male SD rats. To be noted: Rattus norvegicus, 1 h. As to the method: Male SD rats, weighing 200-300 g, were allowed to fast for 24 hours. One milliliter of 60% ethanol (v/v) in 150 mM hydrochloric acid was given orally 1 hour after oral or intraperitoneal administration of test compound as a suspension in 5% gum arabic, and the animals were killed with an overdose of ether 1 hour later. The stomachs were removed and opened along the greater curvature. The total length (mm) of each lesion was measured for use as the lesion index and inhibition (%) of lesion formation by the test compound was calculated by comparing with that of 5% gum arabic as control.
Geranylgeranylacetone (hereinafter abbreviated as GGA) was employed as a reference compound.

The next assay concerns acid secretion. Kind of assay: inhibition of histamine-stimulated gastric acid secretion in perfused stomach (Experiment 2). It counts as in vivo, Male Jcl SD rats. The following applies: intraduodenal, during 90 minutes after administration, histamine dihydrochloride 3 mg/kg/hr. As to the method: Male Jcl SD rats (body weight; about 300 g) were fast for 24 hours and anesthetized by urethane. Cannula was put into the trachea and into a jugular vein. After midline laparotomy, perfusion cannulae were introduced into the stomach through the pylorus and the esophagus. The animal was perfused with saline (1 ml/min) at 37° C. through the esophagus cannula. Perfusate was collected every 15 minutes through the pylorus cannula and titrated with 0.01N sodium hydroxide to measure acid secretion. Histamine dihydrochloride (3 mg/kg/hr) was infused through the jugular vein cannula and the test compound was administered intraduodenaly 90 minutes later. Acid output in perfusate every 15 minutes was measured in the same manner as described above. The rate of maximum inhibition (%) of acid secretion was calculated during 90 minutes after administration of the test compound compared with the acid output just before administration of the test compound.

Setting [1] is: ip, Intraperitoneal administration.

Structures are written as SMILES.

For `CC(=O)NCC=C(C)CCC=C(C)CCC=C(C)CCC=C(C)C` [Compound I-2, N-(3,7,11,15-Tetramethyl-2,6,10,14-hexadecatetraenyl)acetamide], the inhibition in vivo at 20 mg/kg in the assay with lesion formation (Oral administration) came out at 46.6%. In the assay on lesion formation (setting [1]), this compound had an inhibition in vivo at 10 mg/kg of 71.7%. For the compound `COCC(=O)NCC=C(C)CCC=C(C)CCC=C(C)CCC=C(C)C` [Compound I-4], the results for the inhibition in vivo at 20 mg/kg with lesion formation (Oral administration) and in the assay on lesion formation (setting [1]) were 29.3% and 88.4%, respectively. The compound `CC(C)=CCCC(C)=CCCC(C)=CCCC(C)=CCNC(=O)c1ccccc1` [Compound I-9] returned an inhibition in vivo at 20 mg/kg in the assay on lesion formation (setting [1]) of 64.2%. In the assay on lesion formation (setting [1]), `CC(C)=CCCC(C)=CCCC(C)=CCCC(C)=CCNC(=O)c1ccco1` [Compound I-12] registered an inhibition in vivo at 10 mg/kg of 39.4%. With `CC(C)=CCCC(C)=CCCC(C)=CCCC(C)=CCNC(=O)Cc1ccccc1` [Compound I-13], in the assay on lesion formation (setting [1]), the inhibition in vivo at 20 mg/kg amounted to 65.3%. In the assay with lesion formation (setting [1]), `CC(C)=CCCC(C)=CCCC(C)=CCCC(C)=CCNC(=O)c1ccc([N+](=O)[O-])cc1` [Compound I-18] returned an inhibition in vivo at 20 mg/kg of 75.1%. Take `CC(C)=CCCC(C)=CCCC(C)=CCCC(C)=CCNC(=O)c1ccccn1` [Compound I-20]: the inhibition in vivo at 20 mg/kg amounted to 24.2% with lesion formation (Oral administration) and 83.1% in the assay with lesion formation (setting [1]). Consider `CC(C)=CCCC(C)=CCCC(C)=CCCC(C)=CCNC(=O)c1cccnc1` [Compound I-21], for which the inhibition in vivo at 20 mg/kg came to 64.5% with lesion formation (Oral administration) and 99% in the assay with lesion formation (setting [1]). Take `CC(C)=CCCC(C)=CCCC(C)=CCCC(C)=CCNC(=O)c1ccncc1` [Compound I-22, N-(3,7,11,15-Tetramethyl-2,6,10,14 hexadecatetraenyl)isonicotinamide]: the results for the inhibition in vivo at 20 mg/kg in the assay with lesion formation (Oral administration) and in the assay on lesion formation (setting [1]) were 86.1% and 85.6%, respectively.

The compound `CC(C)=CCCC(C)=CCCC(C)=CCCC(C)=CCNC(=O)c1cccs1` [Compound I-24] registered an inhibition in vivo at 20 mg/kg in the assay with lesion formation (Oral administration) of 11.8%. Also, the inhibition in vivo at 10 mg/kg with lesion formation (setting [1]) was 62.1%. In the assay on lesion formation (Oral administration), `CC(C)=CCCC(C)=CCCC(C)=CCCC(C)=CCNC(=O)c1ccc[nH]1` [Compound I-26] displayed an inhibition in vivo at 20 mg/kg of 9.6%. Also, testing at 10 mg/kg in the assay with lesion formation (setting [1]) gave an inhibition in vivo of 59.1%. `CC(C)=CCCC(C)=CCCC(C)=CCCC(C)=CCNC(=O)c1cnccn1` [Compound I-28] gave an inhibition in vivo at 20 mg/kg in the assay on lesion formation (setting [1]) of 80.4%. `CC(C)=CCCC(C)=CCCC(C)=CCCC(C)=CCNC(=O)Cc1ccccn1` [Compound I-29] displayed an inhibition in vivo at 10 mg/kg with lesion formation (setting [1]) of 64.3%. Regarding `CC(C)=CCCC(C)=CCCC(C)=CCCC(C)=CCNC(=O)Cc1cccnc1` [Compound I-30], the inhibition in vivo at 20 mg/kg turned out to be 85.1% in the assay on lesion formation (Oral administration) and 93.6% in the assay on lesion formation (setting [1]). Besides, the figures for the “Inhibition (%): rate of maximum inhibition of acid secretion” value with acid secretion (20 mg/kg) and in the assay on acid secretion (50 mg/kg) were 57.4% and 99.5%, respectively.

Regarding `CC(C)=CCCC(C)=CCCC(C)=CCCC(C)=CCNC(=O)Cc1c[nH]cn1` [Compound I-31], in the assay with lesion formation (setting [1]), at 20 mg/kg the inhibition in vivo was 91%. `CC(C)=CCCC(C)=CCCC(C)=CCCC(C)=CCNC(=O)CC#N` [Compound I-36]: the inhibition in vivo at 20 mg/kg in the assay with lesion formation (Oral administration) is 56.4%; with lesion formation (setting [1]) it was 72.2%.

In the case of `CC(C)=CCCC(C)=CCCC(C)=CCCC(C)=CCNC(=O)N1CCOCC1` [Compound I-55, 1-[N-(3,7,11,15-Tetramethyl-2,6,10,14-hexadecatetraenyl)carbamoyl]morpholine], the results for the inhibition in vivo at 10 mg/kg in the assay with lesion formation (Oral administration) and in the assay with lesion formation (setting [1]) were 22.2% and 76.7%, respectively. For the same compound, the “Inhibition (%): rate of maximum inhibition of acid secretion” value with acid secretion (20 mg/kg) stood at 51.1%; in the assay on acid secretion (50 mg/kg) it was 77.7%.

Regarding `CC(C)=CCCC(C)=CCCC(C)=CCCC(C)=CCNC(=O)N1CCCCC1` [Compound I-56], in the assay on lesion formation (setting [1]), the inhibition in vivo at 20 mg/kg worked out at 79.4%. `CC(C)=CCCC(C)=CCCC(C)=CCCC(C)=CCNC(N)=O` [Compound I-57] had an inhibition in vivo at 10 mg/kg with lesion formation (Oral administration) of 36.2%. Moreover, the inhibition in vivo at 20 mg/kg in the assay with lesion formation (setting [1]) came to 84%. With `CC(C)=CCCC(C)=CCCC(C)=CCCC(C)=CCNC(=O)N1CCN(C)CC1` [Compound I-59], in the assay on lesion formation (setting [1]), the inhibition in vivo at 20 mg/kg worked out at 53.3%.

`CC(C)=CCCC(C)=CCCC(C)=CCCC(C)=CCNC(=O)N1CCN(Cc2ccc3c(c2)OCO3)CC1` [Compound I-62] came in with an inhibition in vivo at 20 mg/kg in the assay on lesion formation (setting [1]) of 46.1%. In turn, `CC(C)=CCCC(C)=CCCC(C)=CCCC(C)=CCNC(=O)NCCCN1CCOCC1` [Compound I-65] registered an inhibition in vivo at 20 mg/kg in the assay with lesion formation (setting [1]) of 35.5%.

With `CC(C)=CCCC(C)=CCCC(C)=CCCC(C)=CCNC(=O)NCc1cccnc1` [Compound I-71], the inhibition in vivo at 20 mg/kg with lesion formation (Oral administration) turned out to be 44.2%; in the assay on lesion formation (setting [1]), 68.5%.

`CC(C)=CCCC(C)=CCCC(C)=CCCC(C)=CCNC(=O)N(C)C` [Compound I-81, N,N-Dimethyl-N'-(3,7,11,15-tetramethyl-2,6,10,14-hexadecatetraenyl)urea]: the inhibition in vivo at 20 mg/kg with lesion formation (Oral administration) came out at 23.9%; with lesion formation (setting [1]) it was 78.2%. As for `CC(C)=CCCC(C)=CCCC(C)=CCCC(C)=CCNC(=O)Nc1ccccc1` [Compound I-82], the inhibition in vivo at 20 mg/kg in the assay with lesion formation (setting [1]) turned out to be 62.7%.

For `CC(=O)CCC=C(C)CCC=C(C)CCC=C(C)CCC=C(C)C` [GGA, Geranylgeranylacetone, reference compound], in the assay with lesion formation (Oral administration), testing at 20 mg/kg gave an inhibition in vivo of 37.7%. The same compound showed an inhibition in vivo at 50 mg/kg in the assay on lesion formation (ip, Intraperitoneal administration, 50 mg/kg) of 81%.

For orientation: inhibition in vivo means the change of the read-out against control, counted positive when it falls. The low end stands for a response near the control, the high end for a response far below the control.
